Source: patent US8461328B2, “Tricyclic heterocyclic compounds, compositions and methods of use thereof” (Genentech, Inc., priority 2010, dated 2013)

What was measured:
Type in all cases: biochemical
JAK1 = target: T1, JAK1 (Homo sapiens, UniProt P23458); experiment: JAK1 inhibition (Table 4); conditions: read-out: JAK1 Ki
T1 construct: made in house; host or cells: SF9 insect cells (baculovirus)

JAK2 = target: T2, JAK2 (Homo sapiens, UniProt O60674); experiment: JAK2 inhibition (Table 4); conditions: read-out: JAK2 Ki
T2 construct: made in house; host or cells: SF9 insect cells (baculovirus)

JAK3 = target: T3, JAK3 (Homo sapiens, UniProt P52333); experiment: JAK3 inhibition (Table 4); conditions: read-out: JAK3 Ki
T3 construct: made in house; host or cells: SF9 insect cells (baculovirus)

TYK2 = target: T4, TYK2 (Homo sapiens, UniProt P29597); experiment: TYK2 inhibition (Table 4)
T4 construct: made in house; host or cells: SF9 insect cells (baculovirus)
T4 sequence (P29597 873-1187): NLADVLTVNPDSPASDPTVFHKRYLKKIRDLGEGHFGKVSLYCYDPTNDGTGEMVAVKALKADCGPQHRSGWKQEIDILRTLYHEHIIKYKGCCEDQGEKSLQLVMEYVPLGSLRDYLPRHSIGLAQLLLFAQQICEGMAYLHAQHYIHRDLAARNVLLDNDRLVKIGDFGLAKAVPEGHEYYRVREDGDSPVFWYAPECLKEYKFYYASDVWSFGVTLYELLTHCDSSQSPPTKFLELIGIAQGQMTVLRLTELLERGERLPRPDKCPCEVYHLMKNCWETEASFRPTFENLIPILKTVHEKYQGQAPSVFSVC

T3 sequence (P52333 783-1124): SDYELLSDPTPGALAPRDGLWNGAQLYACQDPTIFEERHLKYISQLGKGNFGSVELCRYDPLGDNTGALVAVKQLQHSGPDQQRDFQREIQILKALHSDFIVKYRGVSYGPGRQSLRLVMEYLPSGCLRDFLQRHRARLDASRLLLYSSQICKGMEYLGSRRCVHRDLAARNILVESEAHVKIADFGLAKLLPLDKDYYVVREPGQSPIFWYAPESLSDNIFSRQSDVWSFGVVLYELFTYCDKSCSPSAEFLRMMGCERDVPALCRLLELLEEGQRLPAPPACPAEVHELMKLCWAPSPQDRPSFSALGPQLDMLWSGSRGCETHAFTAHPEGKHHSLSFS
T1 sequence (P23458 852-1154): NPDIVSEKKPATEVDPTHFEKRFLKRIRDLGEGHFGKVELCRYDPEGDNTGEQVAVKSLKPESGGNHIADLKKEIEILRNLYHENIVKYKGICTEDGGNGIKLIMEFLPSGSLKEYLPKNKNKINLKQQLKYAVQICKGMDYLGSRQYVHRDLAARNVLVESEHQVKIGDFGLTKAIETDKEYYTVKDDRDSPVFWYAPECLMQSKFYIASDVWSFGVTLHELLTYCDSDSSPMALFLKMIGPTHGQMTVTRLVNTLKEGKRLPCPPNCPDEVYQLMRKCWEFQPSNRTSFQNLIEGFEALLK
T2 sequence (O60674 812-1132): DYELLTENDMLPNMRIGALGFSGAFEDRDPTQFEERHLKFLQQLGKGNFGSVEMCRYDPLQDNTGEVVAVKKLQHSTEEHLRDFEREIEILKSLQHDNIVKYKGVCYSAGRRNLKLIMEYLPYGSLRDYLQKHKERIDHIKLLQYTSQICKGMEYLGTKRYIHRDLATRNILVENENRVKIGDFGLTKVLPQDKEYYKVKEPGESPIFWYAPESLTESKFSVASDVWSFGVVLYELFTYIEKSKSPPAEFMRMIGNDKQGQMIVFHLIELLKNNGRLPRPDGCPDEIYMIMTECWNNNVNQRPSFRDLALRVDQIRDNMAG

Row | SMILES | Ki (JAK1) | Ki (JAK2) | Ki (JAK3) | Ki (TYK2)
1 | O=C1OC(CO)CN1[C@H]1CC[C@H](n2cnc3cnc4[nH]ccc4c32)CC1 (stereo partly drawn) [Example 602, Trans 5-hydroxymethyl-3-[4-(6H-1,2,3,5,6-tetraaza-as-indacen-1-yl)-cyclohexyl]-oxazolidin-2-one] | 1.67 nM | 2.41 nM | 56.7 nM | 12.7 nM
2 | COCCN1CC[C@@H](n2c([C@@H](C)O)nc3cnc4[nH]ccc4c32)C(F)(F)C1 [Example 1014, (R)-1-{1-[(R)-3,3-Difluoro-1-(2-methoxy-ethyl)-piperidin-4-yl]-1,6-dihydro-1,3,5,6-tetraaza-as-indacen-2-yl}-ethanol] | 2.53 nM | 18.6 nM | 4.65 nM | 45.5 nM
3 | OC[C@]1(O)CC[C@H](n2nnc3cnc4[nH]ccc4c32)CC1 [Example 715, Trans-1-Hydroxymethyl-4-(6H-1,2,3,5,6-pentaaza-as-indacen-1-yl)-cyclohexanol] | 11.5 nM | 16.9 nM | 109 nM | 58.2 nM
4 | O=S(=O)(CCO)N1CCC(n2cnc3cnc4[nH]ccc4c32)CC1 [Example 194, 2-[4-(6H-1,2,3,5,6-Tetraaza-as-indacen-1-yl)-piperidine-1-sulfonyl]-ethanol] | 3.91 nM | 5.32 nM | 282 nM | 30.7 nM
5 | Cc1nc2cnc3[nH]ccc3c2n1C1CCC(NCCC#N)C1 (racemic) [Example 627, Racemic trans 3-[3-(2-methyl-6H-1,2,3,5,6-tetraaza-as-indacen-1-yl)-cyclopentylamino]-propionitrile] | 1.36 nM | 5.91 nM | 14 nM | 12.7 nM
6 | FC1CNCCC1n1nnc2cnc3[nH]ccc3c21 (racemic) [Example 518, 1-(3-Fluoro-piperidin-4-yl)-1,6-dihydro-1,2,3,5,6-pentaaza-as-indacene] | 227 nM | 854 nM | 1450 nM | 1990 nM
7 | O=C(C1CC1)N1CCC[C@@H](n2cnc3cnc4[nH]ccc4c32)C1 [Example 75, Cyclopropyl-[(R)-3-(6H-1,3,5,6-tetraaza-as-indacen-1-yl)-piperidin-1-yl]methanone] | 5.89 nM | 8.53 nM | 60.7 nM | 19 nM
8 | COC1CCCC(n2c(C)nc3cnc4[nH]ccc4c32)C1 (stereo not drawn) [Example 889, 1-(3-Methoxy-cyclohexyl)-2-methyl-1,6-dihydro-1,3,5,6-tetraaza-as-indacene] | 36.2 nM | 337 nM | 335 nM | 96.5 nM
9 | CC(CC#N)N1CCC(n2c(CNS(C)(=O)=O)nc3cnc4[nH]ccc4c32)CC1 (racemic) [Example 507, N-{1-[1-(2-Cyano-1-methyl-ethyl)-piperidin-4-yl]-1,6-dihydro-1,3,5,6-tetraaza-as-indacen-2-ylmethyl}-methanesulfonamide] | 11.1 nM | 40.2 nM | 69.4 nM | 102 nM
10 | CCOC(=O)NCCc1nc2cnc3[nH]ccc3c2n1C1CCN(CC)CC1(F)F (single isomer, unassigned) [Example 680, {2-[1-(1-Ethyl-3,3-difluoro-piperidin-4-yl)-1,6-dihydro-1,2,3,5,6-tetraaza-as-indacen-2-yl]-ethyl}-carbamic acid ethyl ester] | 7.32 nM | 56.3 nM | 28.4 nM | 412 nM
11 | CC1CC1COCc1nc2cnc3[nH]ccc3c2n1C1CCN(CCC#N)CC1 (stereo not drawn) [Example 841, 3-{4-[2-(2-Methyl-cyclopropylmethoxymethyl)-6H-1,3,5,6-tetraaza-as-indacen-1-yl]-piperidin-1-yl}-propionitrile] | 66.5 nM | 109 nM | 147 nM | 771 nM
12 | c1cc2c(ncc3ncn(C4CCCOC4)c32)[nH]1 (single isomer, unassigned) [Example 465, 1-(Tetrahydro-pyran-3-yl)-1,6-dihydro-1,3,5,6-tetraaza-as-indacene] | 23.5 nM | 49.9 nM | 50.8 nM | 70.5 nM
